# From PubChem BioAssay AID1259407 (Chemical Carcinogenesis Research Information System (CCRIS), 2018)
# Activity calls are given as the source filed them. No rule for the calls is given here.
# Tested on: CCRIS mutagenicity, Ames/micronucleus/aberration tests
# Test: CCRIS mutagenicity studies
# [1] = Test System: AMES SALMONELLA TYPHIMURIUM, Strain/Indicator: TA100, Metabolic Activation: NONE, Method: PREINCUBATION
# [2] = Test System: AMES SALMONELLA TYPHIMURIUM, Strain/Indicator: TA1535, Metabolic Activation: NONE, Method: PREINCUBATION
# [3] = Test System: AMES SALMONELLA TYPHIMURIUM, Strain/Indicator: TA1537, Metabolic Activation: NONE, Method: PREINCUBATION
structure (smiles),measurement,setting,value
CC(COC(=O)c1ccccc1)(COC(=O)c1ccccc1)COC(=O)c1ccccc1,mutagenic call,"Test System: AMES SALMONELLA TYPHIMURIUM, Strain/Indicator: TA97, Metabolic Activation: HAMSTER, LIVER, S-9, AROCLOR 1254 (10 OR 30%), Method: PREINCUBATION",inactive; negative
same,mutagenic call,"Test System: AMES SALMONELLA TYPHIMURIUM, Strain/Indicator: TA97, Metabolic Activation: NONE, Method: PREINCUBATION",inactive; negative
same,mutagenic call,"Test System: AMES SALMONELLA TYPHIMURIUM, Strain/Indicator: TA97, Metabolic Activation: RAT, LIVER, S-9, AROCLOR 1254 (10 OR 30%), Method: PREINCUBATION",inactive; negative
same,mutagenic call,"Test System: AMES SALMONELLA TYPHIMURIUM, Strain/Indicator: TA98, Metabolic Activation: HAMSTER, LIVER, S-9, AROCLOR 1254 (10 OR 30%), Method: PREINCUBATION",inactive; negative
same,mutagenic call,"Test System: AMES SALMONELLA TYPHIMURIUM, Strain/Indicator: TA98, Metabolic Activation: NONE, Method: PREINCUBATION",inactive; negative
same,mutagenic call,"Test System: AMES SALMONELLA TYPHIMURIUM, Strain/Indicator: TA98, Metabolic Activation: RAT, LIVER, S-9, AROCLOR 1254 (10 OR 30%), Method: PREINCUBATION",inactive; negative
same,mutagenic call,"Test System: AMES SALMONELLA TYPHIMURIUM, Strain/Indicator: TA100, Metabolic Activation: HAMSTER, LIVER, S-9, AROCLOR 1254 (10 OR 30%), Method: PREINCUBATION",inactive; negative
same,mutagenic call,[1],inactive; negative
same,mutagenic call,"Test System: AMES SALMONELLA TYPHIMURIUM, Strain/Indicator: TA100, Metabolic Activation: RAT, LIVER, S-9, AROCLOR 1254 (10 OR 30%), Method: PREINCUBATION",inactive; negative
same,mutagenic call,"Test System: AMES SALMONELLA TYPHIMURIUM, Strain/Indicator: TA1535, Metabolic Activation: HAMSTER, LIVER, S-9, AROCLOR 1254 (10 OR 30%), Method: PREINCUBATION",inactive; negative
same,mutagenic call,[2],inactive; negative
same,mutagenic call,"Test System: AMES SALMONELLA TYPHIMURIUM, Strain/Indicator: TA1535, Metabolic Activation: RAT, LIVER, S-9, AROCLOR 1254 (10 OR 30%), Method: PREINCUBATION",inactive; negative
same,mutagenic call,"Test System: AMES SALMONELLA TYPHIMURIUM, Strain/Indicator: TA1537, Metabolic Activation: HAMSTER, LIVER, S-9, AROCLOR 1254 (30%), Method: PREINCUBATION",inactive; negative
same,mutagenic call,[3],inactive; negative
same,mutagenic call,"Test System: AMES SALMONELLA TYPHIMURIUM, Strain/Indicator: TA1537, Metabolic Activation: RAT, LIVER, S-9, AROCLOR 1254 (30%), Method: PREINCUBATION",inactive; negative
O=C(Cl)c1ccc([N+](=O)[O-])cc1,mutagenic call,"End Point: In vitro chromosomal aberrations, Test System: Chinese hamster lung (CHL/IU) cells, Metabolic Activation: None",inactive; negative. precipitation observed in culture medium at all doses tested.
same,mutagenic call,"End Point: In vitro chromosomal aberrations, Test System: Chinese hamster lung (CHL/IU) cells, Metabolic Activation: Rat, Liver, S9, Phenobarbital and 5,6-benzoflavone",inactive; negative. precipitation observed in culture medium at all doses tested.
same,mutagenic call,"Test System: AMES SALMONELLA TYPHIMURIUM, Strain/Indicator: TA98, Metabolic Activation: HAMSTER, LIVER, S-9, AROCLOR 1254 (10%), Method: PREINCUBATION",active; positive
same,mutagenic call,"Test System: AMES SALMONELLA TYPHIMURIUM, Strain/Indicator: TA98, Metabolic Activation: HAMSTER, LIVER, S-9, AROCLOR 1254, Method: STANDARD PLATE",inactive; negative
same,mutagenic call,"Test System: AMES SALMONELLA TYPHIMURIUM, Strain/Indicator: TA98, Metabolic Activation: NONE, Method: STANDARD PLATE",inactive; negative
same,mutagenic call,"Test System: AMES SALMONELLA TYPHIMURIUM, Strain/Indicator: TA98, Metabolic Activation: RAT, LIVER, S-9, AROCLOR 1254 (10%), Method: PREINCUBATION",active; positive
same,mutagenic call,"Test System: AMES SALMONELLA TYPHIMURIUM, Strain/Indicator: TA98, Metabolic Activation: RAT, LIVER, S-9, AROCLOR 1254, Method: STANDARD PLATE",inactive; negative
same,mutagenic call,"Test System: AMES SALMONELLA TYPHIMURIUM, Strain/Indicator: TA98, Metabolic Activation: RAT, LIVER, S-9, KANECHLOR 500, Method: PREINCUBATION",inactive; negative
same,mutagenic call,"Test System: AMES SALMONELLA TYPHIMURIUM, Strain/Indicator: TA100, Metabolic Activation: HAMSTER, LIVER, S-9, AROCLOR 1254 (10%), Method: PREINCUBATION",active; positive
same,mutagenic call,"Test System: AMES SALMONELLA TYPHIMURIUM, Strain/Indicator: TA100, Metabolic Activation: HAMSTER, LIVER, S-9, AROCLOR 1254, Method: STANDARD PLATE",inactive; negative
same,mutagenic call,[1],active; positive
same,mutagenic call,"Test System: AMES SALMONELLA TYPHIMURIUM, Strain/Indicator: TA100, Metabolic Activation: NONE, Method: STANDARD PLATE",inactive; negative
same,mutagenic call,"Test System: AMES SALMONELLA TYPHIMURIUM, Strain/Indicator: TA100, Metabolic Activation: RAT, LIVER, S-9, AROCLOR 1254 (10%), Method: PREINCUBATION",active; positive
same,mutagenic call,"Test System: AMES SALMONELLA TYPHIMURIUM, Strain/Indicator: TA100, Metabolic Activation: RAT, LIVER, S-9, AROCLOR 1254, Method: STANDARD PLATE",inactive; negative
same,mutagenic call,"Test System: AMES SALMONELLA TYPHIMURIUM, Strain/Indicator: TA100, Metabolic Activation: RAT, LIVER, S-9, KANECHLOR 500, Method: PREINCUBATION",active; positive
same,mutagenic call,"Test System: AMES SALMONELLA TYPHIMURIUM, Strain/Indicator: TA1535, Metabolic Activation: HAMSTER, LIVER, S-9, AROCLOR 1254 (10%), Method: PREINCUBATION",active; positive
same,mutagenic call,"Test System: AMES SALMONELLA TYPHIMURIUM, Strain/Indicator: TA1535, Metabolic Activation: HAMSTER, LIVER, S-9, AROCLOR 1254, Method: STANDARD PLATE",inactive; negative
same,mutagenic call,[2],active; positive
same,mutagenic call,"Test System: AMES SALMONELLA TYPHIMURIUM, Strain/Indicator: TA1535, Metabolic Activation: NONE, Method: STANDARD PLATE",inactive; negative
same,mutagenic call,"Test System: AMES SALMONELLA TYPHIMURIUM, Strain/Indicator: TA1535, Metabolic Activation: RAT, LIVER, S-9, AROCLOR 1254 (10%), Method: PREINCUBATION",active; positive
same,mutagenic call,"Test System: AMES SALMONELLA TYPHIMURIUM, Strain/Indicator: TA1535, Metabolic Activation: RAT, LIVER, S-9, AROCLOR 1254, Method: STANDARD PLATE",inactive; negative
same,mutagenic call,"Test System: AMES SALMONELLA TYPHIMURIUM, Strain/Indicator: TA1537, Metabolic Activation: HAMSTER, LIVER, S-9, AROCLOR 1254 (10%), Method: PREINCUBATION",active; positive
same,mutagenic call,"Test System: AMES SALMONELLA TYPHIMURIUM, Strain/Indicator: TA1537, Metabolic Activation: HAMSTER, LIVER, S-9, AROCLOR 1254, Method: STANDARD PLATE",inactive; negative
same,mutagenic call,[3],active; positive
same,mutagenic call,"Test System: AMES SALMONELLA TYPHIMURIUM, Strain/Indicator: TA1537, Metabolic Activation: NONE, Method: STANDARD PLATE",inactive; negative
same,mutagenic call,"Test System: AMES SALMONELLA TYPHIMURIUM, Strain/Indicator: TA1537, Metabolic Activation: RAT, LIVER, S-9, AROCLOR 1254 (10%), Method: PREINCUBATION",active; positive
same,mutagenic call,"Test System: AMES SALMONELLA TYPHIMURIUM, Strain/Indicator: TA1537, Metabolic Activation: RAT, LIVER, S-9, AROCLOR 1254, Method: STANDARD PLATE",inactive; negative
same,mutagenic call,"Test System: AMES SALMONELLA TYPHIMURIUM, Strain/Indicator: TA1538, Metabolic Activation: HAMSTER, LIVER, S-9, AROCLOR 1254, Method: STANDARD PLATE",inactive; negative
same,mutagenic call,"Test System: AMES SALMONELLA TYPHIMURIUM, Strain/Indicator: TA1538, Metabolic Activation: NONE, Method: STANDARD PLATE",inactive; negative
same,mutagenic call,"Test System: AMES SALMONELLA TYPHIMURIUM, Strain/Indicator: TA1538, Metabolic Activation: RAT, LIVER, S-9, AROCLOR 1254, Method: STANDARD PLATE",inactive; negative
same,mutagenic call,"Test System: Ames Salmonella typhimurium, Strain/Indicator: TA100, Metabolic Activation: Rat, Liver, S9, Sodium phenobarbital and 5,6-benzoflavone (10%), Method: Preincubation",active; positive
same,mutagenic call,"Test System: Ames Salmonella typhimurium, Strain/Indicator: TA1535, Metabolic Activation: None, Method: Preincubation",active; positive
same,mutagenic call,"Test System: Ames Salmonella typhimurium, Strain/Indicator: TA1535, Metabolic Activation: Rat, Liver, S9, Sodium phenobarbital and 5,6-benzoflavone (10%), Method: Preincubation",active; positive
same,mutagenic call,"Test System: Ames Salmonella typhimurium, Strain/Indicator: TA1537, Metabolic Activation: None, Method: Preincubation",inactive; negative
same,mutagenic call,"Test System: Ames Salmonella typhimurium, Strain/Indicator: TA1537, Metabolic Activation: Rat, Liver, S9, Sodium phenobarbital and 5,6-benzoflavone (10%), Method: Preincubation",inactive; negative
same,mutagenic call,"Test System: E. coli, Strain/Indicator: WP2uvrA/pKM101, Metabolic Activation: None, Method: Preincubation",inactive; negative
same,mutagenic call,"Test System: E. coli, Strain/Indicator: WP2uvrA/pKM101, Metabolic Activation: Rat, Liver, S9, Sodium phenobarbital and 5,6-benzoflavone (10%), Method: Preincubation",inactive; negative
same,mutagenic call,"Test System: MOUSE LYMPHOMA, Strain/Indicator: L5178Y (TK+/TK-), Metabolic Activation: NONE, Method: SUSPENSION/PLATE",inactive; negative. reevaluation of results: negative
same,mutagenic call,"Test System: MOUSE LYMPHOMA, Strain/Indicator: L5178Y (TK+/TK-), Metabolic Activation: RAT, LIVER, S-9, AROCLOR 1254, Method: SUSPENSION/PLATE",inactive; negative. reevaluation of results: negative
